The target in test [1] is T1, PTPN2 (Homo sapiens, UniProt P17706).
T1 sequence (P17706 1-415): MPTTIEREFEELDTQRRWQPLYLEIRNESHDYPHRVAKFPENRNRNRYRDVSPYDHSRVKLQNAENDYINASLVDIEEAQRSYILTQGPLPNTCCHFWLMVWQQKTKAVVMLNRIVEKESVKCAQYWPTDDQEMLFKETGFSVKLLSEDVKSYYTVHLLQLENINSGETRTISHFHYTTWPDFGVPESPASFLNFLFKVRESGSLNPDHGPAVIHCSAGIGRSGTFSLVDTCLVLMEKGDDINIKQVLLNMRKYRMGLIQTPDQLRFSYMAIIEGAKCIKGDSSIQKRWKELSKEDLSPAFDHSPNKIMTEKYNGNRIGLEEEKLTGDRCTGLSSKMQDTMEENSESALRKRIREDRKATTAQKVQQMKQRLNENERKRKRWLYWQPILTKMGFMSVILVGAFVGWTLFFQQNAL
Kind of test: PTPN2 biochemical assay (PhosphoSens, substrate AQT0264). To be noted: PhosphoSens substrate AQT0264 20 μM, room temperature; read-out: PTPN2 BCHEM IC50. The method, then:
A PhosphoSens® kinase assay was performed as described by the vendor (AssayQuant Technologies, Marlborough, MA). Briefly, 1000× solutions of compounds were prepared in DMSO via serial dilution of the 10 mM DMSO stocks using 3-fold intervals in a 384-well reagent plate. 50 nL of the compound dilution series was then added to the corresponding wells of a 384-well assay plate. 40 mL of 1.25× substrate (AQT0264) in 1× assay buffer (50 mM HEPES pH 7.5, 500 μM EGTA, […] MgCl2, 0.01% Brij-35, 1% Glycerol, 1 mM DTT, and 0.2 mg/mL BSA) was transferred to each well of the assay plate to achieve a final substrate concentration of 20 μM. Finally, […] of 5×PTPN2 enzyme stock was added to each well of the assay plate for a final enzyme concentration of […]. Reaction progress curves were collected by sampling fluorescence intensity at the excitation wavelength 360 nm (λex360) and emission wavelength 480 nm (λem480) every 71 seconds for one hour using a Synergy H4 plate reader (BioTek Instruments/Agilent Technologies, Winooski, VT) at room temperature.
(§1) For IC50 data, High DDT concentration and/or DiFMUP substrate assays were used; a skilled artisan may use either assay.

For a further test, the system named is phospho-STAT1 (Tyr701). Description: Phospho-STAT1 (Tyr701) HTRF assay in B16-F10 cells. The test is classed as cell-based. Particulars: mouse IFN-gamma 100 ng/ml, 1 hour, read-out: pSTAT1 HTRF B16 EC50. The method, then:
B16-F10 cells (ATCC, Manassas, VA, #CRL-6475) were cultured in DMEM growth medium (ThermoFisher Scientific, Waltham, MA, #11995-040) supplemented with 10% heat inactivated FBS (ThermoFisher Scientific, #16140-071) and 1% pen/strep (ThermoFisher Scientific, #15140-122). The cells were seeded into a white opaque 384-well tissue culture treated microplate (PerkinElmer, Waltham, MA, #6007688) at a density of 10,000 cells/well in 20 uL total volume and incubated overnight at 37 C and 5% CO2. 30 nL of compounds dissolved in DMSO were then transferred from a source plate into target wells with the Echo650 acoustic liquid handler (Beckman Coulter, Indianapolis, IN). Negative control wells received 30 nL of DMSO only (0.15% final concentration). Plates were returned to the incubator for 1 hour and then cells treated with either 5 uL of growth medium or 5 uL of growth medium containing 500 ng/ml of recombinant mouse IFN-gamma protein (R&D Systems, Minneapolis, MN, #485-MI/CF, 100 ng/ml final concentration) using the Assist automated pipetting platform (INTEGRA Biosciences, Hudson, NH). Plates were incubated at 37 C for 1 hour and assayed for phosphorylated STAT1 protein levels with the phospho-STAT1 (Tyr701) HTRF kit (Cisbio, Bedford, MA, #63ADK026PEH) according to manufacturer's instructions. HTRF signal intensity was collected with the En Vision 2105 plate reader (PerkinElmer) 24 hours later and analyzed with the Dotmatics software platform to calculate compound IC50 values.

The subject of the next test is B16-F10 cells. Description: Cell proliferation assay (CellTiter-Glo) in B16-F10 cells with IFN-gamma. The test is classed as cell-based. To be noted: 120 h, mouse IFN-gamma 10 ng/mL, read-out: PTPN2 Prolif 5d B16F10 EC50. The method, then:
B16-F10 cells (ATCC, Manassas, VA, #CRL-6475) were cultured in DMEM growth medium (ThermoFisher Scientific, Waltham, MA, #11995-040) supplemented with 10% heat inactivated FBS (ThermoFisher Scientific, #16140-071) and 1% pen/strep (ThermoFisher Scientific, #15140-122). The cells were seeded into two white opaque 384-well tissue culture treated microplates (PerkinElmer, Waltham, MA, #6007688) at a density of 100 cells/well in 20 uL total volume and incubated overnight at 37 C and 5% CO2. 30 nL of compounds dissolved in DMSO were then transferred from a source plate into target wells with the Echo650 acoustic liquid handler (Beckman Coulter, Indianapolis, IN). Negative control wells received 30 nL of DMSO only (0.15% final concentration). Plates were returned to the incubator for 1 hour and then cells treated with either 5 uL of growth medium or 5 uL of growth medium containing 50 ng/ml of recombinant mouse IFN-gamma protein (R&D Systems, Minneapolis, MN, #485-MI/CF, 10 ng/mL final concentration) using the Assist automated pipetting platform (INTEGRA Biosciences, Hudson, NH). Plates were incubated at 37 C for 4 days and cell proliferation assayed with the CellTiter-Glo reagent (Promega, Madison, WI, #G7573, 25 uL per well). […] Off-target compound mediated cytotoxicity was identified by checking for growth inhibition in the absence of IFNg.
In general terms: ATP-based viability assays read luminescence as a measure of living cells.

Test [2] concerns the target T1, PTPN2. Kind of test: Phosphatase activity assay using DiFMUP as substrate. The test is classed as biochemical. The arrangement: purchased MilliporeSigma SRP5075. Particulars: 10 mM DTT, PTPN2 0.15 nM, room temperature, read-out: PTPN2 BCHEM DIFMUP IC50. The method, then: The PTPN2 biochemical assay was performed as follows, a 5× stock solution of human PTPN2 (SRP5075, MilliporeSigma, Burlington, MA) and a 1.25× stock solution of DiFMUP (D6567, ThermoFisher Scientific, Waltham, MA), were prepared in 1× reaction buffer consisting of 50 mM HEPES, pH 7.4, 1 mM EDTA, 150 mM NaCl, 0.2 mg/mL BSA, 100 U/mL catalase and 10 mM DTT. […] of the DiFMUP substrate solution, for a final concentration of […] DiFMUP substrate, was added to a Corning 3574 384-well, white, non-binding surface microtiter plate containing […] of serially diluted test compounds prepared in DMSO. The reactions were started with the addition of […] of the enzyme solution, for a final PTPN2 concentration of 0.15 nM, and monitored every 105 seconds for 60 minutes at λEX 360/λEM 460 in a BioTek Synergy HTX plate reader (Agilent Technologies, Santa Clara, CA) at room temperature. The initial linear portions of the progress curves were fit according to a linear equation to yield the slopes and converted to % inhibition based on a value of 100% activity for the no inhibitor treated control. IC50 values of each compound were obtained by fitting the % inhibition-compound concentration curves using Dotmatics software (Dotmatics, Bishops Stortford, Hertfordshire, England)
as §1

One may read the IC50 as the concentration needed to halve the response being measured. One may read the EC50 as the concentration at which the effect is half-maximal.

Each structure is given as a SMILES string. Some results are limits rather than exact numbers.

For the compound `N#Cc1cncc(NCc2cc(O)c(N3CC(=O)NS3(=O)=O)c(F)c2)c1` [EXAMPLE 4, 5-[[3-fluoro-5-hydroxy-4-(1,1,4-trioxo-1,2,5-thiadiazolidin-2-yl)phenyl]methylamino]pyridine-3-carbonitrile], the concentration for half-maximal inhibition (IC50) on PTPN2 [1] was found to be 44 nM; on PTPN2 [2], 11 nM. Besides, the 50% effective concentration (EC50) in the test on phospho-STAT1 (Tyr701) is 1850 nM; with B16-F10 cells it was 1650 nM.

Turning to `Cc1cncc(NCc2cc(O)c(N3CC(=O)NS3(=O)=O)c(F)c2)n1` [EXAMPLE 16, 5-[2-fluoro-6-hydroxy-4-[[(6-methylpyrazin-2-yl)amino]methyl]phenyl]-1,1-dioxo-1,2,5-thiadiazolidin-3-one], the IC50 on PTPN2 [1] amounted to 1 nM; on PTPN2 [2], 30 nM. Also, the values for the EC50 in the test on phospho-STAT1 (Tyr701) and with B16-F10 cells were 690 nM and 1730 nM, respectively.

Consider `Cc1ccnc(C)c1NCc1cc(O)c(N2CC(=O)NS2(=O)=O)c(F)c1` [EXAMPLE 3, 5-[4-[[(2,4-dimethyl-3-pyridyl)amino]methyl]-2-fluoro-6-hydroxy-phenyl]-1,1-dioxo-1,2,5-thiadiazolidin-3-one], for which the IC50 on PTPN2 [1] was 90 nM; on PTPN2 [2], 60 nM. The half-maximal effective concentration (EC50) is 6160 nM in the test on phospho-STAT1 (Tyr701) and 5370 nM in the test on B16-F10 cells.

As to `Cc1c(NCc2cc(O)c(N3CC(=O)NS3(=O)=O)c(F)c2)ccnc1-c1ccc(C(C)(C)C)cc1` [EXAMPLE 15, 5-[4-[[[2-(4-tert-butylphenyl)-3-methyl-4-pyridyl]amino]methyl]-2-fluoro-6-hydroxy-phenyl]-1,1-dioxo-1,2,5-thiadiazolidin-3-one], the IC50 on PTPN2 [1] and on PTPN2 [2] was 30 nM each time. The concentration for a half-maximal effect (EC50) in the test with phospho-STAT1 (Tyr701) and in the test with B16-F10 cells was greater than 15000 nM each time.

For the compound `O=C1CN(c2c(O)cc(CNc3ccc(C4CC4)nc3)cc2F)S(=O)(=O)N1` [EXAMPLE 10, 5-[4-[[(6-cyclopropyl-3-pyridyl)amino]methyl]-2-fluoro-6-hydroxy-phenyl]-1,1-dioxo-1,2,5-thiadiazolidin-3-one], the IC50 on PTPN2 [1] was determined as 10 nM; on PTPN2 [2], 100 nM. The EC50 in the test on phospho-STAT1 (Tyr701) stood at 650 nM; with B16-F10 cells, 410 nM.

For the compound `COc1cncc(NCc2cc(O)c(N3CC(=O)NS3(=O)=O)c(F)c2)n1` [EXAMPLE 23, 5-[2-fluoro-6-hydroxy-4-[[(6-methoxypyrazin-2-yl)amino]methyl]phenyl]-1,1-dioxo-1,2,5-thiadiazolidin-3-one], the IC50 at PTPN2 [1] turned out to be 10 nM; at PTPN2 [2] it was 20 nM. The values for the concentration giving a half-maximal response (EC50) with phospho-STAT1 (Tyr701) and in the test with B16-F10 cells were 1920 nM and 1550 nM, respectively.

Turning to `COc1cnc(C)c(NCc2cc(O)c(N3CC(=O)NS3(=O)=O)c(F)c2)n1` [EXAMPLE 21, 5-[2-fluoro-6-hydroxy-4-[[(6-methoxy-3-methyl-pyrazin-2-yl)amino]methyl]phenyl]-1,1-dioxo-1,2,5-thiadiazolidin-3-one], the results for the concentration for a half-maximal effect (EC50) with phospho-STAT1 (Tyr701) and in the test on B16-F10 cells were 7860 nM and 7770 nM, respectively. Further, the IC50 on PTPN2 [2] amounted to 20 nM.

Take `CC(C)c1cnc(NCc2cc(O)c(N3CC(=O)NS3(=O)=O)c(F)c2)nc1` [EXAMPLE 11, 5-[2-fluoro-6-hydroxy-4-[[(5-isopropylpyrimidin-2-yl)amino]methyl]phenyl]-1,1-dioxo-1,2,5-thiadiazolidin-3-one]: at PTPN2 [1], the concentration for half-maximal inhibition (IC50) stood at 140 nM. The EC50 with phospho-STAT1 (Tyr701) is 1770 nM; in the test with B16-F10 cells it was 6020 nM.

For the compound `COc1nc(NCc2cc(O)c(N3CC(=O)NS3(=O)=O)c(F)c2)cnc1C` [EXAMPLE 25, 5-[2-fluoro-6-hydroxy-4-[[(6-methoxy-5-methyl-pyrazin-2-yl)amino]methyl]phenyl]-1,1-dioxo-1,2,5-thiadiazolidin-3-one], the concentration giving a half-maximal response (EC50) in the test with phospho-STAT1 (Tyr701) was determined as 3430 nM; with B16-F10 cells, 11300 nM. Besides, the 50% inhibitory concentration (IC50) on PTPN2 [2] turned out to be 20 nM.

For the compound `N#Cc1ncc(NCc2cc(O)c(N3CC(=O)NS3(=O)=O)c(F)c2)cn1` [EXAMPLE 32, 5-((4-(1,1-dioxido-4-oxo-1,2,5-thiadiazolidin-2-yl)-3-fluoro-5-hydroxybenzyl)amino)pyrimidine-2-carbonitrile], the results for the EC50 in the test on phospho-STAT1 (Tyr701) and in the test with B16-F10 cells were 730 nM and 1380 nM, respectively. Further, the concentration for half-maximal inhibition (IC50) at PTPN2 [2] was 1 nM.

Take `O=C1CN(c2c(O)cc(CNc3cnccc3-c3ccc(C(F)(F)F)cc3)cc2F)S(=O)(=O)N1` [EXAMPLE 30, 5-[2-fluoro-6-hydroxy-4-[[[4-[4-(trifluoromethyl)phenyl]-3-pyridyl]amino]methyl]phenyl]-1,1-dioxo-1,2,5-thiadiazolidin-3-one]: the EC50 in the test with phospho-STAT1 (Tyr701) and in the test with B16-F10 cells was greater than 15000 nM in each case. For the same compound, on PTPN2 [2], the IC50 is 60 nM.

For the compound `Cc1cc(C)nc(NCc2cc(O)c(N3CC(=O)NS3(=O)=O)c(F)c2)n1` [EXAMPLE 29, 5-[4-[[(4,6-dimethylpyrimidin-2-yl)amino]methyl]-2-fluoro-6-hydroxy-phenyl]-1,1-dioxo-1,2,5-thiadiazolidin-3-one], the EC50 in the test with phospho-STAT1 (Tyr701) is 760 nM; with B16-F10 cells, 4770 nM. Besides, at PTPN2 [2], the IC50 amounted to 60 nM.

For the compound `Cc1ccc(NCc2cc(O)c(N3CC(=O)NS3(=O)=O)c(F)c2)nn1` [EXAMPLE 28, 5-(2-fluoro-6-hydroxy-4-(((6-methylpyridazin-3-yl)amino)methyl)phenyl)-1,2,5-thiadiazolidin-3-one 1,1-dioxide], the EC50 in the test on phospho-STAT1 (Tyr701) was determined as 250 nM; in the test with B16-F10 cells, 630 nM. Further, the IC50 at PTPN2 [2] was 20 nM.
